According to US20010044463A1, “Methods for controlling gram negative bacteria in mammals” (priority 1997, published 2001):

Columns and labels:
H. pylori ATCC 43504 = assay: Minimum Inhibitory Concentration (MIC) blood agar plate growth inhibition; assay type: cell-based, Helicobacter pylori
Protocol: Subsequent dilutions were made in ethanol immediately prior to use. […] Subsequent dilutions were made in BHI medium (Brain heart infusion broth, Difco #0037-07-0) immediately prior to use.
(§1) Blood agar base (BAB) was prepared containing 1.5% agar and autoclaved. 20 ml samples of autoclaved BAB were poured into 50 mL tubes and placed in a 56° C. water bath.
The mixed media preparation was poured into a petri dished and allowed to solidify.
(§2) Prior to inoculation of petri plates, bacteria or cultures were examined for morphology under a phase microscope to confirm motility and physical characteristics, e.g., spiral shaped. The organisms were washed off the plate into PBS (Phosphate buffered saline) (80.0 g NaCl, 2.0 g KCl, 2.4 g KH2PO4 11.5 g Na2HPO4 or 24.4 g Na2HPO4/2H2O per 1 liter deionized water, pH 7.2, sterilized by autoclaving) and diluted into BHI at a concentration of 10^8/ml (O.D. of 0.3 units diluted 1:30). Ten microliters of solution containing 10^6 organisms were spread onto a petri plate and grown under microaerophilic conditions for 3 days unless specified. Control organisms were grown under microaerophilic conditions.
(§3) Inhibition of growth was determined by the amount of colonies present within the petri plate. The following factors were used for growth inhibition: ±=0-20 colonies, +=20-50 colonies, ++=50-200 colonies and +++=200+ colonies.

[1] = tested on: H. pylori (urease positive) ATCC Number 51652; assay: as above; assay type: cell-based, Helicobacter pylori; conditions: Table XVII, Blood agar base + 3% sheep blood
Protocol: (§4) Monensin (Sigma Cat. No. M-5273) was dissolved in 100% absolute ethanol (AAPER Alcohol and Chemical Co.) at a concentration of 20 mg/ml. Subsequent dilutions were made in ethanol immediately prior to use. Nigericin (Sigma Cat. No. N-7143) was dissolved in DMSO at 2 mg/ml. Subsequent dilutions were made in BHI medium (Brain heart infusion broth, Difco #0037-07-0) immediately prior to use.
as §1
(§5) 100 μl of a drug (final concentration equivalent to 1:200 of original concentration) and 1.2 ml of sheep blood (Colorado Senun Company # CS-1112) (blood diluted in a 1:1 buffer providing a 3% concentration of blood per 20 ml medium sample) were added to 20 ml sample of media and mixed. The mixed media preparation was poured into a petri dished and allowed to solidify.
as §2, §3

Staph ATCC 14775 = assay: Blood agar plate growth inhibition, control organism; assay type: cell-based; conditions: Table XV, Non microaerophilic conditions
Protocol: as §4, §1, §5
as §2, with “Control organisms were grown under microaerophilic conditions.” left out
as §3

[2] = Tables IX-XIII, final drug concentration 0.098 μg/ml
[3] = Tables IX-XIII, final drug concentration 0.195 μg/ml
[4] = Tables IX-XIII, final drug concentration 0.39 μg/ml
[5] = Tables IX-XIII, final drug concentration 0.78 μg/ml
[6] = Tables IX-XIII, final drug concentration 1.56 μg/ml
[7] = Tables IX-XIII, final drug concentration 3.125 μg/ml
[8] = Tables IX-XIII, final drug concentration 6.25 μg/ml
[9] = Tables IX-XIII, final drug concentration 12.5 μg/ml
[10] = Tables IX-XIII, final drug concentration 25 μg/ml
[11] = Tables IX-XIII, final drug concentration 50 μg/ml
[12] = Tables IX-XIII, final drug concentration 100 μg/ml
[13] = final drug concentration 0.1 ng/ml
[14] = final drug concentration 1 ng/ml
[15] = final drug concentration 10 ng/ml
[16] = final drug concentration 100 ng/ml
[17] = final drug concentration 1 μg/ml
[18] = final drug concentration 10 μg/ml

| Molecule | MIC (H. pylori ATCC 43504; Tables IX-XIII) | growth (amount of colonies present within the petri plate) (H. pylori ATCC 43504; [2]) | growth (amount of colonies present within the petri plate) (H. pylori ATCC 43504; [3]) | growth (amount of colonies present within the petri plate) (H. pylori ATCC 43504; [4]) | growth (amount of colonies present within the petri plate) (H. pylori ATCC 43504; [5]) | growth (amount of colonies present within the petri plate) (H. pylori ATCC 43504; [6]) | growth (amount of colonies present within the petri plate) (H. pylori ATCC 43504; [7]) | growth (amount of colonies present within the petri plate) (H. pylori ATCC 43504; [8]) | growth (amount of colonies present within the petri plate) (H. pylori ATCC 43504; [9]) | growth (amount of colonies present within the petri plate) (H. pylori ATCC 43504; [10]) | growth (amount of colonies present within the petri plate) (H. pylori ATCC 43504; [11]) | growth (amount of colonies present within the petri plate) (H. pylori ATCC 43504; [12]) | growth (amount of colonies present within the petri plate) [1, 13] | growth (amount of colonies present within the petri plate) [1, 14] | growth (amount of colonies present within the petri plate) [1, 15] | growth (amount of colonies present within the petri plate) [1, 16] | growth (amount of colonies present within the petri plate) [1, 17] | growth (amount of colonies present within the petri plate) [1, 18] | other results |
| --- | --- | --- | --- | --- | --- | --- | --- | --- | --- | --- | --- | --- | --- | --- | --- | --- | --- | --- | --- |
| 26-O Phenylmonensin [Monensin phenyl carbamate] | MIC = 1.56 μg/ml | (+++) (+++=200+ colonies) | (+++) (+++=200+ colonies) | (++) (++=50-200 colonies) | (++) (++=50-200 colonies) | (+) small colonies (+=20-50 colonies) | (±) few small colonies (±=0-20 colonies) | No growth | No growth | No growth | No growth | No growth |  |  |  |  |  |  |  |
| CNc1ccc2oc(C[C@H]3O[C@@]4(CC[C@H]3C)O[C@H]([C@H](C)C(=O)c3ccc[nH]3)[C@H](C)C[C@H]4C)nc2c1C(=O)O [A23187] |  |  |  |  |  |  |  |  |  |  |  |  | (+++) (+++=200+ colonies) | (+++) (+++=200+ colonies) | (+++) (+++=200+ colonies) | (+++) (+++=200+ colonies) | No growth | No growth |  |
| CC[C@@]1([C@@H]2O[C@@H]([C@H]3O[C@@](O)(CO)[C@H](C)C[C@@H]3C)C[C@@H]2C)CC[C@H]([C@]2(C)CC[C@]3(C[C@H](O)[C@@H](C)[C@@H]([C@@H](C)[C@@H](OC)[C@H](C)C(=O)OCc4ccccc4)O3)O2)O1 [Benzyl Monensin, monensin benzyl ester] | MIC = 25 μg/ml | (+++) (+++=200+ colonies) | (+++) (+++=200+ colonies) | (+++) (+++=200+ colonies) | (+++) (+++=200+ colonies) | (+++) (+++=200+ colonies) | (+++) (+++=200+ colonies) | (+++) (+++=200+ colonies) | (++) (++=50-200 colonies) | (±) (±=0-20 colonies) | (±) (±=0-20 colonies) | (±) (±=0-20 colonies) |  |  |  |  |  |  |  |
| CCC1(C2OC(C3OC(O)(COC(=O)NC(C)NC(=O)OCC4c5ccccc5-c5ccccc54)C(C)CC3C)CC2C)CCC(C2(C)CCC3(CC(O)C(C)C(C(C)C(OC)C(C)C(=O)O)O3)O2)O1 (centres unmarked) [Fmoc-Ala-monensin, 26-O-[1-(Fmoc-amino)ethylcarbamoyl] monensin] | MIC = 6.25 μg/ml | (+++) (+++=200+ colonies) | (+++) (+++=200+ colonies) | (+++) (+++=200+ colonies) | (+++) (+++=200+ colonies) | (+++) (+++=200+ colonies) | (+++) (+++=200+ colonies) | (±) (±=0-20 colonies) | No growth | No growth | No growth | No growth |  |  |  |  |  |  |  |
| C[C@H](CCC(=O)O)C[C@H](C)C[C@H](C)C(=O)/C=C(\O)[C@H](C)C[C@H](C)C/C=C/[C@@H](C)[C@@H](O)[C@@H](C)[C@@H](O)C[C@@H]1CC[C@@](C)([C@H]2CC[C@@](C)([C@@H](C)O)O2)O1 [Ionomycin, ionomycin] |  |  |  |  |  |  |  |  |  |  |  |  | (+++) (+++=200+ colonies) | (+++) (+++=200+ colonies) | (+++) (+++=200+ colonies) | (+++) (+++=200+ colonies) | (+++) (+++=200+ colonies) | (+++) (+++=200+ colonies) |  |
| CC[C@@H](C(=O)[C@@H](C)[C@@H](O)[C@H](C)CCc1ccc(C)c(O)c1C(=O)O)[C@H]1O[C@](CC)([C@H]2CC[C@](O)(CC)[C@H](C)O2)C[C@@H]1C [Lasalocid, lasalocid] |  |  |  |  |  |  |  |  |  |  |  |  | (+++) (+++=200+ colonies) | (+++) (+++=200+ colonies) | (+++) (+++=200+ colonies) | (+++) (+++=200+ colonies) | (+++) (+++=200+ colonies) | (+++) (+++=200+ colonies) | growth (amount of colonies present within the petri plate) (H. pylori ATCC 43504; Table VII, urease positive, final drug concentration 10 μg/ml): (+++) (+++=200+ colonies); growth (amount of colonies present within the petri plate) (Staph ATCC 14775; [15]): (+++) (+++=200+ colonies); growth (amount of colonies present within the petri plate) (Staph ATCC 14775; [16]): (+++) (+++=200+ colonies); growth (amount of colonies present within the petri plate) (Staph ATCC 14775; [17]): (+++) (+++=200+ colonies); growth (amount of colonies present within the petri plate) (Staph ATCC 14775; [18]): No growth |
| CCC1(C2OC(C3OC(O)(COC(=O)Nc4cccnc4)C(C)CC3C)CC2C)CCC(C2(C)CCC3(CC(O)C(C)C(C(C)C(OC)C(C)C(=O)O)O3)O2)O1 (centres unmarked) [Monensin pyridyl carbamate, 26-O-(3-pyridylcarbamoyl) monensin] | MIC = 3.12 μg/ml | (+++) (+++=200+ colonies) | (+++) (+++=200+ colonies) | (+++) (+++=200+ colonies) | (+++) (+++=200+ colonies) | (++) (++=50-200 colonies) | (±) (±=0-20 colonies) | No growth | No growth | No growth | No growth | No growth |  |  |  |  |  |  |  |
